Earlier results, collected in patent publication EP0486445A2, “Polyfunctional derivatives of cyclodextrin” (Chiellini, Emo, priority 1990, dated 1992).

Experiments:
[1] = compared to the starting cyclodextrin; degree of substitution lower than 7
[2] = compared to the starting cyclodextrin

Row | Compound | toxicity [1] | water solubility [2]
1 | 2-hydroxypropyl- β-cyclodextrin [HP- βCD] | lower toxicity | much larger water solubility
2 | COC[C@H]1O[C@@H]2O[C@H]3[C@H](O)[C@@H](OC)[C@@H](O[C@H]4[C@H](O)[C@@H](OC)[C@@H](O[C@H]5[C@H](O)[C@@H](OC)[C@@H](O[C@H]6[C@H](O)[C@@H](OC)[C@@H](O[C@H]7[C@H](O)[C@@H](OC)[C@@H](O[C@H]8[C@H](O)[C@@H](OC)[C@@H](O[C@H]1[C@H](O)[C@H]2OC)O[C@@H]8COC)O[C@@H]7COC)O[C@@H]6COC)O[C@@H]5COC)O[C@@H]4COC)O[C@@H]3COC [DM-β CD, eptakis-(2,6-O-dimethyl)-β-cyclodextrin] |  | much more water soluble
3 | hydroxyethyl-β-cyclodextrin [HE- βCD] | lower toxicity | much larger water solubility
